How the values were obtained:
[1] = tested on: THP1-defNLRP3 cells; experiment: Agonistic effect on the expression of IL-1β in NLRP3 deficient THP1 cells (THP1-defNLRP3) after PMA-induced differentiation (HTRF); type: cell-based, human; conditions: Homo sapiens, THP-1; IL-1β level, PMA-differentiated NLRP3 deficient THP1 cells, 6 hours; highest test concentration 30 μM; read-out: hNLRP3 EC50 (μM) (THP-1defNLRP3)
Outline: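 PMA-differentiated (1 μM, 24 h) NLRP3-deficient THP1 macrophages, 1×10^5 cells/well in RPMI 1640 with 2% heat-inactivated FBS, treated with compound for 6 h at 37 °C. Supernatant IL-1β measured by HTRF. EC50 from four-parameter variable-slope fit.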

[2] = molecular target: T1, hTLR7 (Homo sapiens, UniProt Q9NYK1); experiment: Agonistic effect on hTLR7, HEK-hTLR7-NF-κB-Luciferase reporter cells; type: cell-based; conditions: 16 hours
T1 construct: host or cells: HEK-hTLR7-NF-κB-Luciferase cells
T1 sequence (Q9NYK1 27-1049): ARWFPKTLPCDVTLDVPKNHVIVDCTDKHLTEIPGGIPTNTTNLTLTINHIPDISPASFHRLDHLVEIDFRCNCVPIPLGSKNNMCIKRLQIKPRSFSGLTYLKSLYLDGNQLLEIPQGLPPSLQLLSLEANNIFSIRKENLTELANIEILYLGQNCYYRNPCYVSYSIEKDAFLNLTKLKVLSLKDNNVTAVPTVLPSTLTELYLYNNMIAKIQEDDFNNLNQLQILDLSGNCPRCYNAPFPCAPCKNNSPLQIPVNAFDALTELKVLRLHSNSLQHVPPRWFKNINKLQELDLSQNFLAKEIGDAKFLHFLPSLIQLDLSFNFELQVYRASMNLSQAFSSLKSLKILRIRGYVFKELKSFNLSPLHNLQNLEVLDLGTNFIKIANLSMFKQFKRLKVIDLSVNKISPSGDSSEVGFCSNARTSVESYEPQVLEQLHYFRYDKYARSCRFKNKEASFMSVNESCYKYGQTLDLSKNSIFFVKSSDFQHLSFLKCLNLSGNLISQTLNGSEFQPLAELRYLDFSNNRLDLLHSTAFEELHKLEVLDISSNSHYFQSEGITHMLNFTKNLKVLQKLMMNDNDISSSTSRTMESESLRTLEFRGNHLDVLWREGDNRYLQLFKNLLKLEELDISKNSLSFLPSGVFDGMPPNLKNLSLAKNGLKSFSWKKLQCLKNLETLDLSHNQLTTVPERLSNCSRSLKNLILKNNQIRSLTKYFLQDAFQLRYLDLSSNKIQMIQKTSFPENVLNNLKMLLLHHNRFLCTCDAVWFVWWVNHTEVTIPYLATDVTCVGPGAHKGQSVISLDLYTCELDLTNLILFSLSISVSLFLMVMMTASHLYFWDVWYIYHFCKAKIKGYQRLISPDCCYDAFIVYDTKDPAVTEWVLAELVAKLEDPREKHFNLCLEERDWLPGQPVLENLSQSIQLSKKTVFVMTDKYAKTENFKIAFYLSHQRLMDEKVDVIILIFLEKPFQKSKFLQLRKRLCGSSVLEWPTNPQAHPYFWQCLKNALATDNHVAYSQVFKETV
Outline: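 HEK cells carrying human TLR7 and NF-κB-luciferase reporter, […] in DMEM with 10% FBS, exposed to compound for 16 h at 37 °C, 5% CO2; serves as specificity counterscreen to NLRP3 activity. Luminescence (RLU) after 5 min with luciferase reagent; EC50 by four-parameter variable-slope fit.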

Row | SMILES | EC50 [1] [µM] | EC50 [2] [µM]
1 | C[C@@H]1CN(c2cc(N)nc3cc(-c4ccn[nH]4)sc23)C[C@@H](C)O1 [Compound 148, 7-((2R,6R)-2,6-dimethylmorpholino)-2-(1H-pyrazol-5-yl)thieno[3,2-b]pyridine-5-amine] | > 30 | > 100
2 | Cc1noc(C)c1CNc1cc(N)nc2cc(-c3ccn[nH]3)sc12 [Compound 149, N^7-((3,5-dimethylisoxazol-4-yl)methyl)-2-(1H-pyrazol-5-yl)thieno[3,2-b]pyridine-5,7-diamine] | > 30 | > 100
3 | Nc1cc(NCCCN2CCCC2=O)c2sc(-c3ccn[nH]3)cc2n1 [Compound 150] | > 30 | > 100
4 | Cc1c(-c2cc[nH]n2)sc2c(NCC(C)(C)CO)cc(N)nc12 [Compound 151] | > 30 | > 100
5 | COCCNc1cc(N)nc2c(C)c(-c3cc[nH]n3)sc12 [Compound 152] | > 30 | > 100

Source: patent US20220056043A1, “NITROGEN-CONTAINING FUSED CYCLIC COMPOUND, PREPARATION METHOD THEREFOR AND USE THEREOF” (SICHUAN KELUN-BIOTECH BIOPHARMACEUTICAL CO., LTD., priority 2019, published 2022)
